Assay results from patent US9011867B2, “Use of specific peptides in the preparation of a medicament for the treatment of monoclonal gammopathy of undetermined significance (MGUS) or of smoldering multiple myeloma (SMM)” (Ruprecht-Karls-Universitat Heidelberg, priority 2009, dated 2015).

Experiments:
[1] = system: Melan-A analogue specific T-cells; test: IFN-γ ELISpot-assay with peptide pulsed T2 cells, Melan-A analogue specific T-cells as effectors; assay type: cell-based, human; settings: for activation of Melan-A analogue specific T-cells by peptide pulsed T2 cells (IFN-γ ELISpot): T-cells from HLA-A2+ HD, ET ratio 2.5/1, FIG. 1A
[2] = system: HM1.24aa22-30-specific T-cells; test: IFN-γ ELISpot-assay with peptide pulsed T2 cells, HM1.24aa22-30-specific T-cells as effectors; assay type: cell-based, human; settings: T-cells from HLA-A2+ HD; ET ratio 2.5/1; FIG. 1A

| Sequence | activation of Melan-A analogue specific T-cells by peptide pulsed T2 cells (IFN-γ ELISpot) [1] | IFN-γ production of Melan-A analogue specific T-cells activated by peptide pulsed T2 cells ([1]; T-cells from MM patient no. 10, FIG. 4B) | activation of HM1.24aa22-30-specific T-cells by peptide pulsed T2 cells (IFN-γ ELISpot) [2] |
| --- | --- | --- | --- |
| LLLGIGILV (peptide (HM 1.24)) [HM1.24aa22-30] | strong activation | produced IFN-γ |  |
| VLLGLSALL [HM1.24aa171-179] | activated neither |  | activated neither |
